In patent publication US20230124361A1, “SMALL MOLECULE STING ANTAGONISTS” (CURADEV PHARMA PVT. LTD., priority 2020, published 2023):

Biological target: T1, STING (Homo sapiens, UniProt Q86WV6, G230A/H232R/R293Q/R71H)
T1 construct: host or cells: THP1-Dual cells (human THP-1 monocyte line with Lucia/SEAP reporters)
Assay: Reporter gene expression assay in THP1-Dual cells (IRF pathway Lucia luciferase, 2',3'-cGAMP stimulation)
Assay type: cell-based
Settings: 10 min preincubation, 5 μM 2',3'-cGAMP, 20 hr, IRF reporter QUANTI-Luc, read-out: THP-1 (HAQ) Activity
Protocol: Reporter Gene Expression Assay in THP-1 Cells
THP1-Dual™ cells (Invivogen) were derived from the human THP-1 monocyte cell line by stable integration of two inducible reporter constructs. As a result, THP1-Dual™ cells allow the simultaneous study of the IRF pathway, by assessing the activity of a secreted luciferase (Lucia) and the NF-κB pathway, by monitoring the activity of secreted SEAP. 5×10^4 THP1-Dual™ cells were seeded in 384-well plates in growth medium and preincubated with novel compounds for 10 minutes followed by stimulation with 5 μM 2′,3′-cGAMP. After 20 hr of stimulation the supernatant was removed and the IRF pathway reporter protein was readily measured in the cell culture supernatant using QUANTI-Luc™ (Invivogen), a luciferase detection reagent on a Spectramax i3X luminometer.
In the tables below, IC50 value ranges for exemplary compounds are given. The IC50 ranges are indicated as “A” for values less than or equal to 1 μM, “B” for values greater than 1 μM and less than or equal to 10 μM, and “C” for values greater than 10 μM.

T1 sequence (Q86WV6 whole entry R71H/G230A/H232R/R293Q): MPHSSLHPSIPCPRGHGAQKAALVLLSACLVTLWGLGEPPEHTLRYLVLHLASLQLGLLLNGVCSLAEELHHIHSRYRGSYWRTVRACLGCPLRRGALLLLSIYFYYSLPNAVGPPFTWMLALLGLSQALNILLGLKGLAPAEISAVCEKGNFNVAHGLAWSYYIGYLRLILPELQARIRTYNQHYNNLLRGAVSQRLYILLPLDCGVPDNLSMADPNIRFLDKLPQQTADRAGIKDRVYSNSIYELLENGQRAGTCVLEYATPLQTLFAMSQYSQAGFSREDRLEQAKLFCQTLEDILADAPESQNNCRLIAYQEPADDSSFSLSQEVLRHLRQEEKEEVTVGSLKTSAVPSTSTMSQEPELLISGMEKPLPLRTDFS

First: O=C(Nc1ccc2c(c1)OCC(=O)N2Cc1ccccc1C(=O)O)Nc1ccc2cc[nH]c2c1 [Example 143, 2-((7-(3-(1H-indol-6-yl)ureido)-3-oxo-2,3-dihydro-4H-benzo[b][1,4]oxazin-4-yl)methyl)benzoic acid]
Second: O=C(Nc1ccc2c(c1)OCC(=O)N2Cc1ccccc1)Nc1ccc2cc[nH]c2c1 [Example 69, 1-(4-Benzyl-3-oxo-3,4-dihydro-2H-benzo[b][1,4]oxazin-7-yl)-3-(1H-indol-6-yl)urea]
The IC50 of the first is higher: greater than 10000 nM for the first, no more than 1000 nM for the second.

First: O=C(Cc1ccco1)Nc1ccc2c(c1)N(Cc1ccccc1)C(=O)CS2 [Example 48, N-(4-benzyl-3-oxo-3,4-dihydro-2H-benzo[b][1,4]thiazin-6-yl)-2-(furan-2-yl)acetamide]
Second: O=C(Nc1ccccc1)Nc1ccc2c(c1)N(Cc1ccccc1)C(=O)CS2 [Example 2, 1-(4-benzyl-3-oxo-3,4-dihydro-2H-benzo[b][1, 4]thiazin-6-yl)-3-phenylurea]
The IC50 of the first is higher: greater than 10000 nM for the first, 1000 to 10000 nM for the second. The second is the more potent here.

`N#Cc1ccc(CN2C(=O)COc3cc(NC(=O)Nc4ccc5cc[nH]c5c4)ccc32)c(F)c1` [Example 120, 1-(4-(4-cyano-2-fluorobenzyl)-3-oxo-3,4-dihydro-2H-benzo[b][1,4]oxazin-7-yl)-3-(1H-indol-6-yl)urea] and `N#Cc1ccc(CN2C(=O)COc3cc(NC(=O)Nc4ccc5cc[nH]c5c4)ccc32)cc1` [Example 123, 1-(4-(4-cyanobenzyl)-3-oxo-3,4-dihydro-2H-benzo[b][1,4]oxazin-7-yl)-3-(1H-indol-6-yl)urea] fall in the same range of IC50: 1000 to 10000 nM for the first, 1000 to 10000 nM for the second.

`NC(=O)C1COc2cc(NC(=O)Nc3ccc4cc[nH]c4c3)ccc2N1Cc1ccccc1` (centres unmarked) [Example 188, 7-(3-(1H-indol-6-yl)ureido)-4-benzyl-3,4-dihydro-2H-benzo[b][1,4]oxazine-3-carboxamide] and `O=C(Nc1ccc2c(c1)N(Cc1ccccc1)C(CCO)CO2)Nc1ccc2cc[nH]c2c1` (centres unmarked) [Example 80, 1-(4-Benzyl-3-(2-hydroxyethyl)-3-,4-dihydro-2H-benzo[b][1,4]oxazin-6-yl)-3-(1H-indol-6-yl)urea] fall in the same range of IC50: 1000 to 10000 nM for the first, 1000 to 10000 nM for the second.

`O=C(Nc1ccc2c(c1)OCC(=O)N2Cc1cc2c(cc1Cl)OCO2)Nc1ccc2cc[nH]c2c1` [Example 103, 1-(4-((6-chlorobenzo[d][1,3]dioxol-5-yl)methyl)-3-oxo-3,4-dihydro-2H-benzo[b][1,4]oxazin-7-yl)-3-(1H-indol-6-yl)urea] and `O=C(Nc1ccc2c(c1)OCC(=O)N2Cc1cc(F)cc(Cl)c1)Nc1ccc2cc[nH]c2c1` [Example 102, 1-(4-(3-chloro-5-fluorobenzyl)-3-oxo-3,4-dihydro-2H-benzo[b][1,4]oxazin-7-yl)-3-(1H-indol-6-yl)urea] cannot be ordered by IC50: no more than 1000 nM for the first, no more than 1000 nM for the second.

Compared with `O=C1CSc2ccc(N3CCN(c4ccc5cc[nH]c5c4)CC3)cc2N1Cc1ccccc1` [Example 191, 6-(4-(1H-Indol-6-yl)piperazin-1-yl)-4-benzyl-2H-benzo[b][1,4]thiazin-3(4H)-one], `Nc1cccc(CN2C(=O)CSc3ccc(NC(=O)Nc4ccc5cc[nH]c5c4)cc32)c1` [Example 53, l-(4-(3-aminobenzyl)-3-oxo-3,4-dihydro-2H-benzo[b][1, 4]thiazin-6-yl)-3-(1H-indol-6-yl)urea] is higher in IC50: 1000 to 10000 nM for the first, greater than 10000 nM for the second.

`Nc1cccc(NC(=O)Nc2ccc3c(c2)N(Cc2ccccc2)C(=O)CS3)c1` [Example 25, 1-(3-aminophenyl)-3-(4-benzyl-3-oxo-3,4-dihydro-2H-benzo [b][1,4]thiazin-6-yl)urea] and `O=C(Nc1ccc2c(c1)NCCO2)Nc1ccc2c(c1)N(Cc1ccccc1)C(=O)CS2` [Example 51, 1-(4-benzyl-3-oxo-3,4-dihydro-2H-benzo[b][1, 4]thiazin-6-yl)-3-(3,4-dihydro-2H-benzo[b][1, 4]oxazin-6-yl)urea] fall in the same range of IC50: 1000 to 10000 nM for the first, 1000 to 10000 nM for the second.

`O=C(Nc1ccc2c(c1)OCC(=O)N2Cc1nc2ccccc2s1)Nc1ccc2cc[nH]c2c1` [Example 117, 1-(4-(benzo[d]thiazol-2-ylmethyl)-3-oxo-3,4-dihydro-2H-benzo[b][1,4]oxazin-7-yl)-3-(1H-indol-6-yl)urea] and `O=C(Nc1ccc2c(c1)OCC(=O)N2Cc1cccc(CO)c1)Nc1ccc2cc[nH]c2c1` [Example 156, 1-(4-(3-(hydroxymethyl)benzyl)-3-oxo-3,4-dihydro-2H-benzo[b][1, 4]oxazin-7-yl)-3-(1H-indol-6-yl)urea] cannot be ordered by IC50: no more than 1000 nM for the first, 1000 to 10000 nM for the second.

First: O=C(Nc1ccc2c(c1)OCC(=O)N2Cc1ncno1)Nc1ccc2cc[nH]c2c1 [Example 163, 1-(4-((1,2,4-oxadiazol-5-yl)methyl)-3-oxo-3,4-dihydro-2H-benzo[b][1,4]oxazin-7-yl)-3-(1H-indol-6-yl)urea]
Second: O=C(Nc1ccc2c(c1)OCC(=O)N2Cc1cc(F)cc(F)c1)Nc1ccc2cc[nH]c2c1 [Example 105, 1-(4-(3,5-difluorobenzyl)-3-oxo-3,4-dihydro-2H-benzo[b][1,4]oxazin-7-yl)-3-(1H-indol-6-yl)urea]
The IC50 of the first is higher: greater than 10000 nM for the first, no more than 1000 nM for the second. The second is the more potent here.

`O=C(Nc1ccc2c(c1)SCC(=O)N2Cc1c(F)cc(O)cc1F)Nc1ccc2cc[nH]c2c1` [Example 127, 1-(4-(2,6-difluoro-4-hydroxybenzyl)-3-oxo-3,4-dihydro-2H-benzo[b][1, 4]thiazin-7-yl)-3-(1H-indol-6-yl)urea] and `O=C(Nc1ccc2c(c1)SCCN2Cc1c(F)cccc1Cl)Nc1ccc2cc[nH]c2c1` [Example 171, 1-(4-(2-chloro-6-fluorobenzyl)-3,4-dihydro-2H-benzo[b][1, 4]thiazin-7-yl)-3-(1H-indol-6-yl)urea] cannot be ordered by IC50: 1000 to 10000 nM for the first, no more than 1000 nM for the second.

`O=C(Nc1ccc2c(c1)OCCN2c1ncco1)Nc1ccc2cc[nH]c2c1` [Example 185, 1-(1H-indol-6-yl)-3-(4-(oxazol-2-yl)-3,4-dihydro-2H-benzo[b][1,4]oxazin-7-yl)urea] and `O=C(Nc1ccc2c(c1)SCCN2c1ccccc1)Nc1ccc2cc[nH]c2c1` [Example 182, 1-(1H-indol-6-yl)-3-(4-phenyl-3,4-dihydro-2H-benzo[b][1,4]thiazin-7-yl)urea] cannot be ordered by IC50: no more than 1000 nM for the first, no more than 1000 nM for the second.

`O=C(Nc1ccc2c(c1)OCC(=O)N2Cc1ccccc1)NC1CCc2ccccc2C1` (centres unmarked) [Example 135, 1-(4-benzyl-3-oxo-3,4-dihydro-2H-benzo[b][1, 4]oxazin-7-yl)-3-(1,2,3,4-tetrahydro-naphthalen-2-yl)urea] and `O=C(Nc1ccc2c(c1)OCC(=O)N2Cc1ccccc1)N1CCc2ccccc2C1` [Example 141, N-(4-benzyl-3-oxo-3,4-dihydro-2H-benzo[b][1, 4]oxazin-7-yl)-3,4-dihydro-isoquinoline-2(1H)-carboxamide] fall in the same range of IC50: 1000 to 10000 nM for the first, 1000 to 10000 nM for the second.

`O=C(Nc1ccc2c(c1)OCC(=O)N2Cc1cc(F)cc(C(F)(F)F)c1)Nc1ccc2cc[nH]c2c1` [Example 112, 1-(4-(3-fluoro-5-(trifluoromethyl)benzyl)-3-oxo-3,4-dihydro-2H-benzo[b][1,4]oxazin-7-yl)-3-(1H-indol-6-yl)urea] and `O=C(Nc1ccc2cc[nH]c2c1)Nc1cc2c(cc1Br)N(Cc1ccccc1)C(=O)CO2` [Example 166, 1-(4-benzyl-6-bromo-3-oxo-3,4-dihydro-2H-benzo[b][1, 4]oxazin-7-yl)-3-(1H-indol-6-yl)urea] cannot be ordered by IC50: no more than 1000 nM for the first, 1000 to 10000 nM for the second.

Going from `O=C(Nc1ccc2c(c1)N(Cc1ccccc1)CC[S+]2[O-])Nc1ccc2cc[nH]c2c1` (centres unmarked) [Example 167, 1-(4-benzyl-1-oxido-3,4-dihydro-2H-benzo[b][1, 4]thiazin-6-yl)-3-(1H-indol-6-yl)urea] to `C=CCC1COc2ccc(NC(=O)Nc3ccc4cc[nH]c4c3)cc2N1Cc1ccccc1` (centres unmarked) [Example 78, 1-(3-Allyl-4-benzyl-3,4-dihydro-2H-benzo[b][1,4]oxazin-6-yl)-3-(1H-indol-6-yl)urea], the IC50 falls from greater than 10000 nM to no more than 1000 nM.

`O=C(NCc1cc[nH]c1)Nc1ccc2c(c1)OCC(=O)N2Cc1ccccc1` [Example 132, 1-((1H-pyrrol-3-yl)methyl)-3-(4-benzyl-3-oxo-3,4-dihydro-2H-benzo[b][1, 4]oxazin-7-yl)urea] and `O=C(Nc1ccc(F)cc1)Nc1ccc2c(c1)SCC(=O)N2Cc1ccccc1` [Example 52, 1-(4-benzyl-3-oxo-3,4-dihydro-2H-benzo[b][1, 4]thiazin-7-yl)-3-(4-fluorophenyl) urea] fall in the same range of IC50: 1000 to 10000 nM for the first, 1000 to 10000 nM for the second.

First: O=C1CSc2ccc(-c3nc(-c4ccccc4)co3)cc2N1Cc1c(F)cccc1Cl [Example 46, 4-(2-Chloro-6-fluorobenzyl)-6-(4-phenyloxazol-2-yl)-2H-benzo[b][1,4]thiazin-3(4H)-one]
Second: O=C(Nc1ccc(F)cc1)Nc1ccc2c(c1)N(Cc1cn3ccccc3n1)C(=O)CS2 [Example 26, 1-(4-fluorophenyl)-3-(4-(imidazo [1,2-a]pyridin-2-ylmethyl)-3-oxo-3,4-dihydro-2H-benzo[b][1, 4]thiazin-6-yl)urea]
The IC50 of the first is higher: greater than 10000 nM for the first, 1000 to 10000 nM for the second. The second is the more potent here.

`O=C(Nc1ccc2c(c1)N(Cc1ccccc1)CCO2)Nc1cnc2cc[nH]c2c1` [Example 177, 1-(4-benzyl-3,4-dihydro-2H-benzo[b][1, 4]oxazin-6-yl)-3-(1H-pyrrolo[3,2-b]pyridin-6-yl)urea] and `NC(=O)CC1Sc2ccc(NC(=O)Nc3ccc4cc[nH]c4c3)cc2N(Cc2ccccc2)C1=O` (centres unmarked) [Example 76, 2-(6-(3-(1H-Indol-6-yl)ureido)-4-benzyl-3-oxo-3,4-dihydro-2H-benzo[b][1,4]thiazin-2-yl)acetamide] fall in the same range of IC50: 1000 to 10000 nM for the first, 1000 to 10000 nM for the second.

Compound `O=C(c1ccccc1)N1CCSc2ccc(S(=O)(=O)NCc3ccco3)cc21` [Example 49, 4-benzoyl-N-(furan-2-ylmethyl)-3,4-dihydro-2H-benzo[b][1,4]thiazine-6-sulfonamide] has an IC50 greater than 10000 nM.
